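48-hour exposure; five concentrations; linearly interpolated endpoints. GI50 = concentration required for 50% inhibition of growth.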 The source made the active and inactive calls. Cut-off read from the data, not from the text of the source: active = GI50 up to about 1.1 µM and inactive = higher.
Columns and labels:
Experiment in all cases: NCI anticancer screen, dose series, 48 h
[1] = tested on: HCT-15
[2] = tested on: HOP-62
[3] = tested on: IGROV-1
[4] = tested on: LOX IMVI
[5] = tested on: M14
[6] = tested on: MOLT-4
[7] = tested on: Malme-3M
[8] = tested on: SF-295
[9] = tested on: SK-MEL-28
[10] = tested on: SK-MEL-2
[11] = tested on: SK-MEL-5
[12] = tested on: SNB-19
[13] = tested on: SW-620
[14] = tested on: U-251
[15] = tested on: UACC-62
[16] = tested on: CCRF-CEM
[17] = tested on: HCC 2998
[18] = tested on: K562
[19] = tested on: NCI/ADR-RES
[20] = tested on: OVCAR-5

Compound | GI50 [1] [µM] | GI50 [2] | GI50 [3] | GI50 [4] | GI50 [5] | GI50 [6] | GI50 [7] | GI50 [8] | GI50 [9] | GI50 [10] | GI50 [11] | GI50 [12] | GI50 [13] | GI50 [14] | GI50 [15] | GI50 [16] | GI50 [17] | GI50 [18] | GI50 [19] | GI50 [20]
COc1ccc(C2C(C(=O)O)=C(CO)Oc3cc4c(cc32)OCO4)cc1 (centres undefined) | > 100 | 32.5 µM (inactive) | > 100 µM (inactive) | > 100 µM (inactive) | > 100 µM (inactive) | > 10 µM (inactive) | > 100 µM (inactive) | > 100 µM (inactive) | > 100 µM (inactive) | > 100 µM (inactive) | > 100 µM (inactive) | > 100 µM (inactive) | > 100 µM (inactive) | > 100 µM (inactive) | > 100 µM (inactive) |  |  |  |  | 
OC[C@H]1NC[C@@H](O)[C@@H](O)[C@H]1O | > 100 | > 100 µM (inactive) | > 100 µM (inactive) | > 100 µM (inactive) | > 100 µM (inactive) | > 100 µM (inactive) | > 100 µM (inactive) | > 100 µM (inactive) | > 10 µM (inactive) | > 100 µM (inactive) | > 100 µM (inactive) | > 100 µM (inactive) | > 100 µM (inactive) | > 100 µM (inactive) | > 100 µM (inactive) | > 100 µM (inactive) | > 100 µM (inactive) | > 100 µM (inactive) | > 100 µM (inactive) | > 100 µM (inactive)
O=c1[nH]nc(NCc2ccccc2)c2nnn(Cc3ccccc3)c12 | > 100 | > 100 µM (inactive) |  | > 100 µM (inactive) | > 100 µM (inactive) | > 100 µM (inactive) | > 100 µM (inactive) | > 100 µM (inactive) | > 100 µM (inactive) | > 100 µM (inactive) | > 100 µM (inactive) | > 100 µM (inactive) |  | > 100 µM (inactive) |  | > 100 µM (inactive) | > 100 µM (inactive) | > 100 µM (inactive) | > 100 µM (inactive) | > 100 µM (inactive)
CC1C(O)[C@@]2(OC[C@@]34C(=O)CC5(O)[C@H](CCC6Cc7nc8c(nc7C[C@]65C)CC5CC[C@@H]6C7=C[C@H]9O[C@@]%10(O[C@@](C)(CO)C[C@@H]%10O)C(C)[C@@]9(O)[C@]7(C)[C@@H](O)CC6[C@]5(C)C8)C3=CC[C@H]4C2C)OC1(C)C (some centres undefined) | 0.00667 | < 0.000355 µM (active) | 0.00262 µM (active) | < 0.000355 µM (active) |  | < 0.000355 µM (active) | 0.00287 µM (active) | < 0.000355 µM (active) |  | 0.000524 µM (active) | 0.00667 µM (active) | 0.00259 µM (active) | 0.000385 µM (active) | < 0.000355 µM (active) | < 0.000355 µM (active) | < 0.000355 µM (active) | 0.548 µM (active) | < 0.000355 µM (active) | > 3.55 µM (inactive) | 0.00211 µM (active)
C[Si](C)(OCCS(=O)(=O)O)C1(Cc2cccc3ccccc23)S(=O)(=O)OCCOS1(=O)=O | 19.6 | 19.6 µM (inactive) | 16.9 µM (inactive) | 16.2 µM (inactive) | 17.7 µM (inactive) | 34.9 µM (inactive) |  | 20.2 µM (inactive) | 17.1 µM (inactive) | 18.9 µM (inactive) | 17.3 µM (inactive) | 19.1 µM (inactive) | 16.3 µM (inactive) | 20.3 µM (inactive) | 17.9 µM (inactive) | 18.3 µM (inactive) | 16.5 µM (inactive) | 26.4 µM (inactive) | 33.7 µM (inactive) | 18.7 µM (inactive)
NC(CCOCCP(=O)(O)O)C(=O)O (centres undefined) | > 100 |  | > 100 µM (inactive) | > 100 µM (inactive) | > 100 µM (inactive) | > 100 µM (inactive) |  | > 100 µM (inactive) | > 100 µM (inactive) | > 100 µM (inactive) | > 100 µM (inactive) | > 100 µM (inactive) | > 100 µM (inactive) | > 100 µM (inactive) | 56.5 µM (inactive) | > 100 µM (inactive) | > 100 µM (inactive) | > 100 µM (inactive) | > 100 µM (inactive) | > 100 µM (inactive)
N=S(=O)(c1ccccc1)c1ccccc1 |  | > 100 µM (inactive) | > 100 µM (inactive) | > 100 µM (inactive) | > 100 µM (inactive) | 22 µM (inactive) | > 100 µM (inactive) | > 100 µM (inactive) | > 100 µM (inactive) | > 100 µM (inactive) | > 100 µM (inactive) | > 100 µM (inactive) | > 100 µM (inactive) | > 100 µM (inactive) | > 100 µM (inactive) | 24.2 µM (inactive) | > 100 µM (inactive) | 28.2 µM (inactive) |  | > 100 µM (inactive)
Nc1nc(=O)[nH][nH]1 | > 100 | > 100 µM (inactive) | > 100 µM (inactive) | > 100 µM (inactive) |  | > 100 µM (inactive) | > 100 µM (inactive) | > 100 µM (inactive) | > 100 µM (inactive) | > 100 µM (inactive) | > 100 µM (inactive) | > 100 µM (inactive) | > 100 µM (inactive) | > 100 µM (inactive) | > 100 µM (inactive) | > 100 µM (inactive) | > 100 µM (inactive) | > 100 µM (inactive) | > 100 µM (inactive) | > 100 µM (inactive)
